Measured values reported in US9676780B2, “Piperazine-substituted [1,2,4]triazolo[1,5-C]quinazolin-5-amine compounds with A2A antagonist properties” (MERCK SHARP & DOHME CORP., priority 2012, dated 2017).
Like-named read-outs stand apart in the source and are kept apart here.

Target: T1, human A2a receptor (Homo sapiens, UniProt P29274)
T1 construct: purchased Perkin-Elmer RBHA2AM400UA; host or cells: HEK293
Test: A2a receptor competition binding assay (Scintillation Proximity, tritiated radioligand)
Settings: 0.5 nM tritiated ligand, SPA beads, one hour at room temperature
Description: Binding affinities of compounds of the invention for the human A2a receptor were determined in a competition binding assay using Scintillation Proximity technology. […] The beads were then allowed to settle to the bottom of the wells for 1 hr, after which the membrane-associated radioactivity was determined by scintillation counting in a TopCount microplate reader. Ki values were determined using the Cheng-Prusoff equation.
• HEK293 cells expressing the human, rat, dog or monkey adenosine 2a receptor (Purchased from Perkin-Elmer # RBHA2AM400UA). • The Tritiated compound was prepared in-house by MRL Radiochemistry according to published methods. • Wheatgerm agglutinin-coated yttrium silicate SPA beads (GE Healthcare #RPNQ0023). […] This is a 2.5× solution. The final concentration in the assay is 0.5 nM. Calculate the concentration by counting two 5 ul aliquots. Membrane Preparation • Use 0.25 ug of membrane/well. Dilute membranes to 9.7 ug/ml in assay buffer. Treat with 20 ug/ml adenosine deaminase (ADA) for 15 minutes at room temperature to degrade endogenous adenosine. Membrane-Bead Mixture • Use 100 ug/well wheatgerm agglutinin-coated yttrium silicate SPA beads. • Mix ADA-treated membranes and SPA beads together for 30 min prior to assay. […] Incubate for one hour at room temperature with agitation. • Include total binding (assay buffer+1% DMSO) and non-specific binding (CGS15943, 1 uM) wells. Counting • Allow the beads to settle for one hour. • Count in TopCount. Calculations • A curve fitting program (i.e., Prism, Activity Base, Chemcart) is used to determine the EC50.
The Ki value is calculated using the Cheng-Prusoff equation. Ki=EC50/(1+(radioligand concentration/Kd))

[1] = membranes from HEK293 cells expressing the human A2a receptor, read-out: A2a EC50
[2] = A2a EC50, membranes from HEK293 cells expressing the human A2a receptor

T1 sequence (P29274 whole entry): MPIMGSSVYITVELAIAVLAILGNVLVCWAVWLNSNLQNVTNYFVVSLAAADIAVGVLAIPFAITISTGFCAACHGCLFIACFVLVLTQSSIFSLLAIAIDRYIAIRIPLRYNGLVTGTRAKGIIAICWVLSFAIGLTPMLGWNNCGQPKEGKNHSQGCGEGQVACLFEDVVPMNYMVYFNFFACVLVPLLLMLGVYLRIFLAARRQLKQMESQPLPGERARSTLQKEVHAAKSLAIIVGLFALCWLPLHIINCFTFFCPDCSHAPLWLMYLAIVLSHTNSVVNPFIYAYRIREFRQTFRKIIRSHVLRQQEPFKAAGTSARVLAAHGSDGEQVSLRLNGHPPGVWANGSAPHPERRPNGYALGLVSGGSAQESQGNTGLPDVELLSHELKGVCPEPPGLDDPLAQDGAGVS

Row | Structure (SMILES) | EC50 [1] | EC50 [2]
1 | COc1cccc2c1nc(N)n1nc(CN3CCN(Cc4nc5ccncc5n4C)CC3C)nc21 (stereo not drawn) [Ex-13] | 87.1 nM | –
2 | COc1cccc2c1nc(N)n1nc(CN3CCN(Cc4ccc(F)cc4F)CC3C)nc21 (stereo not drawn) [Ex-21] | 20.3 nM | –
3 | COc1cccc2c1nc(N)n1nc(CN3CCN(c4ccc(C(F)(F)F)cc4)CC3C)nc21 (stereo not drawn) [Ex-48] | 18.2 nM | –
4 | COc1cccc2c1nc(N)n1nc(CN3CCN(C)CC3c3ccccc3)nc21 (stereo not drawn) [Ex-3] | 190 nM | –
5 | COc1cccc2c1nc(N)n1nc(CN3CCN(C(=O)OC(C)(C)C)CC3C(F)(F)F)nc21 (stereo not drawn) [Ex-171] | 30.4 nM | –
6 | COc1cc(F)cc2c1nc(N)n1nc(CN3C4CCC3CN(Cc3ccccc3)C4)nc21 [Ex-206] | – | 30.9 nM
7 | COc1cc(CN2CCN(Cc3nc4c5cccc(OC)c5nc(N)n4n3)C(C)C2)cc(OC)c1 (stereo not drawn) [Ex-20] | 51.7 nM | –
8 | COc1cc(F)cc2c1nc(N)n1nc(CN3CCN(c4ccc(F)cn4)CC3C)nc21 (stereo not drawn) [Ex-41] | 18.1 nM | –
9 | CCn1ccnc1CN1CCN(Cc2nc3c4cccc(OC)c4nc(N)n3n2)C(C)C1 (stereo not drawn) [Ex-12] | 88 nM | –
10 | COc1cccc2c1nc(N)n1nc(CN3CCN(Cc4nccs4)CC3C)nc21 (stereo not drawn) [Ex-17] | 26.7 nM | –
11 | COCCOc1ccc(N2CCN(Cc3nc4c5cc(F)cc(F)c5nc(N)n4n3)CC2)cc1 [Ex-162] | 74.2 nM | –
12 | COc1cccc2c1nc(N)n1nc(CN3[C@H](C)CN(C(=O)c4ccc(F)cc4)C[C@@H]3C)nc21 [Ex-201] | 50.2 nM | –
13 | CCc1nc(N2CCN(Cc3nc4c5cccc(OC)c5nc(N)n4n3)C(C)C2)no1 (stereo not drawn) [Ex-87] | 21.5 nM | –
14 | COc1cccc2c1nc(N)n1nc(CN3CCN(C(=O)c4ccc(F)cc4)CC3(C)C)nc21 [Ex-202] | 29.1 nM | –
15 | COc1cccc2c1nc(N)n1nc(CN3CCN(c4ccccn4)CC3)nc21 [Ex-170] | 157 nM | –
16 | COc1cccc2c1nc(N)n1nc(CN3C4CCC3C3CCC4N3)nc21 [Ex-208] | – | 143 nM
17 | COc1cccc2c1nc(N)n1nc(CN3CCN(Cc4ccc(F)c(F)c4F)CC3C)nc21 (stereo not drawn) [Ex-29] | 18.6 nM | –
18 | COc1cccc2c1nc(N)n1nc(CN3CCN(c4noc(C(F)(F)F)n4)CC3C)nc21 (stereo not drawn) [Ex-83] | 47.6 nM | –
19 | COc1cccc2c1nc(N)n1nc(CN3CCN(Cc4ccc(N(C)C)cc4)CC3C)nc21 (stereo not drawn) [Ex-32] | 78.3 nM | –
20 | COCc1nc(N2CCN(Cc3nc4c5cccc(OC)c5nc(N)n4n3)C(C)C2)no1 (stereo not drawn) [Ex-79] | 21.1 nM | –
21 | COc1cccc2c1nc(N)n1nc(CN3C4CCC3C3CCC4N3C(=O)c3ccc(C(F)(F)F)cc3)nc21 [Ex-203] | – | 8.5 nM
22 | COc1cccc2c1nc(N)n1nc(CN3CCN(c4ccc(F)cc4)C4(CC4)C3)nc21 [Ex-195] | 41.6 nM | –
23 | COc1ccc(CN2CCN(Cc3nc4c5cccc(OC)c5nc(N)n4n3)C(C)C2)cc1F (stereo not drawn) [Ex-25] | 34.5 nM | –
24 | COc1cccc2c1nc(N)n1nc(CN3C4CCC3C3CCC4N3C(=O)c3ccc(F)cc3)nc21 [Ex-204] | – | 11.5 nM
25 | COc1cccc2c1nc(N)n1nc(CN3CCN(c4ccc(C(F)(F)F)cn4)C[C@H]3C)nc21 [Ex-173] | 22.6 nM | –
26 | COc1cccc2c1nc(N)n1nc(CN3CCN(c4cnccn4)CC3C)nc21 (stereo not drawn) [Ex-113] | 27.3 nM | –
27 | CCC1CN(C(=O)c2ccc(F)cc2)CC(C)N1Cc1nc2c3cccc(OC)c3nc(N)n2n1 (stereo not drawn) [Ex-46] | 50.2 nM | –
28 | COc1cccc2c1nc(N)n1nc(CN3CCN(c4cc(C(F)(F)F)c(C(F)(F)F)cn4)CC3C)nc21 (stereo not drawn) [Ex-139] | 81.8 nM | –
29 | COc1cccc2c1nc(N)n1nc(CN3CCN(CCC(F)(F)F)CC34CC4)nc21 [Ex-196] | 95.7 nM | –
30 | C[C@@H]1CN(c2ccc(F)cc2)CCN1Cc1nc2c3cccc(C#N)c3nc(N)n2n1 [Ex-156] | 740 nM | –

Further molecules by falling EC50 [1], results first:

Row | EC50 [1] | Structure (SMILES) | EC50 [2]
31 | 17.7 nM | COc1cccc2c1nc(N)n1nc(CN3CCN(Cc4ccc(F)c(F)c4)CC3C)nc21 (stereo not drawn) [Ex-23] | –
32 | 16.5 nM | COc1ccnc(N2CCN(Cc3nc4c5cccc(OC)c5nc(N)n4n3)C(C)C2)c1 (stereo not drawn) [Ex-142] | –
33 | 15.6 nM | COc1cccc2c1nc(N)n1nc(CN3CCN(Cc4ccc(F)c(C)c4)CC3C)nc21 (stereo not drawn) [Ex-28] | –
34 | 15 nM | COc1cccc2c1nc(N)n1nc(CN3C(C)CN(c4ccc(F)cn4)CC3C)nc21 (stereo not drawn) [Ex-150] | –
35 | 13.5 nM | COc1cccc2c1nc(N)n1nc(CCN3CCN(c4ccccc4)CC3)nc21 [Ex-166] | –
36 | 13.1 nM | COc1cccc2c1nc(N)n1nc(CN3CCN(c4ccccc4C)CC3C)nc21 (stereo not drawn) [Ex-64] | –
37 | 12.6 nM | CCOC(=O)N1CCN(Cc2nc3c4cccc(OC)c4nc(N)n3n2)C2(CC2)C1 [Ex-188] | –
38 | 11.5 nM | COc1cccc2c1nc(N)n1nc(CN3CCN(c4cccc5ccccc45)CC3C)nc21 (stereo not drawn) [Ex-71] | –
39 | 11.4 nM | COc1cccc2c1nc(N)n1nc(CN3CCN(c4ccc(C#N)cc4)CC3C)nc21 (stereo not drawn) [Ex-61] | –
40 | 9.2 nM | COc1cccc2c1nc(N)n1nc(CN3CCN(Cc4cc(F)c(F)cc4F)CC3C)nc21 (stereo not drawn) [Ex-30] | –
41 | 8.9 nM | COc1cccc2c1nc(N)n1nc(CN3CCN(c4ccc(F)cc4)CC3CF)nc21 (stereo not drawn) [Ex-176] | –
42 | 7.8 nM | COc1cccc2c1nc(N)n1nc(CCN3CCN(c4ncc(F)cn4)CC3)nc21 [Ex-163] | –
43 | 7.3 nM | COc1cccc2c1nc(N)n1nc(CC(=O)N3CCN(c4ccccn4)CC3)nc21 [Ex-153] | –
44 | 7.1 nM | COc1cccc2c1nc(N)n1nc(CCCN3CCN(c4ccccn4)CC3)nc21 [Ex-158] | –
45 | 6.98 nM | COc1cccc2c1nc(N)n1nc(CN3CCN(c4cc(F)ccn4)CC3C)nc21 (stereo not drawn) [Ex-107] | –
46 | 6.35 nM | COc1cncc(N2CCN(Cc3nc4c5cccc(OC)c5nc(N)n4n3)C(C)C2)c1 (stereo not drawn) [Ex-146] | –
47 | 5.2 nM | COc1cccc2c1nc(N)n1nc(CN3CCN(c4cccc(C(F)(F)F)c4)C[C@H]3C)nc21 [Ex-55] | –
48 | 5.2 nM | COc1cccc2c1nc(N)n1nc(CN3CCN(C(C)c4ccc(F)cc4F)CC3C)nc21 (stereo not drawn) [Ex-92] | –

Row | EC50 [1] | Structure (SMILES) | EC50 [2]
49 | 4.86 nM | COc1cccc2c1nc(N)n1nc(CN3CCN(c4ncc(F)cc4F)CC3C)nc21 (stereo not drawn) [Ex-122] | –
50 | 4.73 nM | COc1cccc2c1nc(N)n1nc(CN3CCN(c4cc(F)cc(F)c4)CC3C)nc21 (stereo not drawn) [Ex-106] | –
51 | 4.66 nM | COc1cccc2c1nc(N)n1nc(CN3CCN(c4nsnc4OCCO)CC3C)nc21 (stereo not drawn) [Ex-109] | –
52 | 4.25 nM | COc1cccc2c1nc(N)n1nc(CN3CCN(c4cc(C(F)F)ccn4)CC3C)nc21 (stereo not drawn) [Ex-123] | –
53 | 4.1 nM | COc1cccc2c1nc(N)n1nc(CCN3CCN(c4ccc(F)cc4)C[C@H]3C)nc21 [Ex-168] | –
54 | 3.7 nM | COc1cccc2c1nc(N)n1nc(CN3CCN(c4ccc(Cl)cc4)C[C@H]3C)nc21 [Ex-35] | –
55 | 3.5 nM | COc1cccc(N2CCN(Cc3nc4c5cc(F)cc(OC)c5nc(N)n4n3)CC2(C)C)c1 [Ex-186] | –
56 | 3.3 nM | COc1cccc2c1nc(N)n1nc(CCN3CCN(c4ccccn4)CC3)nc21 [Ex-165] | –
57 | 3.1 nM | COCCOc1ccc(N2CCN(Cc3nc4c5cccc(OC)c5nc(N)n4n3)C3(CC3)C2)cc1 [Ex-189] | –
58 | 3 nM | COc1cccc2c1nc(N)n1nc(CN3CCN(c4ccc(C)cc4)CC3C)nc21 (stereo not drawn) [Ex-66] | –
59 | 2.6 nM | COc1cccc2c1nc(N)n1nc(CCN3CCN(c4ccc(F)cn4)C[C@H]3C)nc21 [Ex-169] | –
60 | 2.34 nM | COCc1c2cc(N3CCN(Cc4nc5c6cccc(OC)c6nc(N)n5n4)C(C)C3)ccc2nn1C (stereo not drawn) [Ex-141] | –
61 | 2.04 nM | COc1cccc2c1nc(N)n1nc(CN3CCN(c4cccc5nn(C)cc45)CC3C)nc21 (stereo not drawn) [Ex-132] | –
62 | 1.97 nM | COc1cccc2c1nc(N)n1nc(CN3CCN(c4ccc(N5CCOCC5)cc4)CC3C)nc21 (stereo not drawn) [Ex-119] | –
63 | 1.85 nM | COCCOc1ccc(N2CCN(Cc3nc4c5cccc(OC)c5nc(N)n4n3)C(C)C2)cc1 (stereo not drawn) [Ex-94] | –
64 | 1.25 nM | COc1ccc(N2CCN(Cc3nc4c5cccc(OC)c5nc(N)n4n3)C(C)C2)cc1C(F)(F)F (stereo not drawn) [Ex-118] | –
65 | 1.1 nM | COc1ccc(N2CCN(Cc3nc4c5cccc(OC)c5nc(N)n4n3)CC2(C)C)cc1 [Ex-180] | –
66 | 0.698 nM | COc1cccc2c1nc(N)n1nc(CN3CCN(c4ccc5nn(C)cc5c4)CC3C)nc21 (stereo not drawn) [Ex-131] | –
